# Laboratory results: US11590117B2, “Treatment of a hematologic malignancy with 2-(4-chlorophenyl)-n-((2-(2,6-dioxopiperidin-3-yl)-1-oxoisoindolin-5-yl)methyl)-2,2-difluoroacetamide” (priority 2016, dated 2023)
# Like-named read-outs stand apart in the source and are kept apart here.
# Columns and labels:
# Test in all cases: IncuCyte Kinetic Caspase-3/7 Apoptosis Assay
# Type in all cases: cell-based
# F36-P = conditions: Homo sapiens, read-out: Compound 1-induced Apoptosis EC50
# Description: (§1) Methods. Acute Myeloid Leukemia Cell Line Panel: Human AML cell lines, AML-193, F36-P, GDM-1, HL-60, HNT-34, Kasumi-1, Kasumi-3, KG-1, KG-1a, ML-2, MOLM-13, MUTZ-8, MV-4-11, NOMO-1, OCI-AML2, OCI-AML3, SIG-M5, TF-1, THP-1, and UT-7 were obtained from American Type Culture Collection (ATCC; Manassas, Va.) and Deutsche Sammlung von Mikroorganismen und Zellkulturen (DSMZ) (Germany) cell banks. The AML panel includes cell line(s) from each FAB classification (M0-M7) (Table 7).
# (§2) Cell Culture Conditions: Cell lines were maintained in growth media containing 20% fetal bovine serum (FBS) (Hyclone Cat no. SH30910.03, Lot no. AZF188864; Corning REFno. 35-010-CV, Lot no. 35010124) supplemented with or without 10 ng/mL human recombinant granulocyte-macrophage colony stimulating factor (Sigma-Aldrich Cat no. SRP3050) (Table 8). Medium was purchased from ATCC (Cat no. 30-2001, 30-2002, 30-2003, 30-2005) and Gibco (REF no. 12561-056). Human recombinant granulocyte macrophage colony stimulating factor (GM-CSF) was expressed in Escherichia coli. The cell doubling times for each cell line were provided by ATCC and DSMZ. Cells were maintained in humidified incubators at 5% carbon dioxide (CO2). All cell lines were acclimated to Eagle's minimal essential medium (EMEM)+20% FBS with or without GM-CSF over 2 to 4 weeks prior to live cell imaging using IncuCyte Zoom (Essen Biosciences). The use of EMEM was necessary to eliminate background fluorescence caused by riboflavin in most media.
# (§3) Incubation of Cell Cultures with Compound 1: Compound 1 was provided for studies by Celgene chemistry group at a stock concentration of 30 mM in 20 μL dimethyl sulfoxide (DMSO) frozen. Costar 96-well cell culture plates (Corning Cat no. 3595) were coated with 100 μL of 10 µg/mL fibronectin (Sigma-Aldrich Cat no. F1141) for 4 hours at 37° C. and immediately used or refrigerated overnight for later use. Cells (3000 to 6000 cells) were plated in growth medi in fibronectin-coated 96-well plates and incubated for a minimum of a few hours to overnight. Cells were incubated with a 12-point concentration response in triplicate with Compound 1 ([…]) including DMSO and Media controls. A 3-fold serial dilution of Compound 1 starting from a concentration of 200 μM in 0.6% DMSO (diluted in Media) was performed. For most sensitive cell lines, a 3-fold serial dilution of Compound 1 starting from a concentration of 20 μM in 0.6% DMSO (diluted in media) was performed. A volume of 5 μL or 10 μL for each dilution was added to 100 μL or 200 μL cells, respectively (0.3% DMSO final) and incubated for live cell imaging.
# (§4) Live Cell Imaging on IncuCyte Zoom: Following incubation of cells with Compound 1, diluted Caspase 3/7 reagent (Essen Biosciences Cat no. 4440) is added to each well. The Caspase-3/7 reagent couples the activated caspase-3/7 recognition motif (DEVD) to NucView™488, a DNA intercalating dye. The cleavage of substrate by activated caspase-3/7 results in the release of the DNA dye and green fluorescent staining of nuclear DNA. This allows imaging of cells undergoing caspase-3/7 mediated apoptosis over time. Caspase-3/7 activation was quantified using the IncuCyte™ ZOOM basic analyzer. Red-labeled cell lines were also imaged over time using the IncuCyte™ ZOOM basic analyzer, for determination of both cell doubling time and Compound 1 effect on cell viability. Experiments were performed at least two times in each cell line.
# (§5) Next, a 4 parameter log-logistic model was used to determine relative EC50 at each time point by the ‘drm’ function from the R ‘drc’ package (Ritz C, Streibig J C. Bioassay Analysis using R. J. Statist. Software 2005; 12(5):1-22). Goodness of fit was measured by R squared (coefficient of determination or the amount of variation explained by the model fit) of ≥80%, and EC50 parameter was assessed by having a ratio of standard error to the parameter of ≤40%, and the presence of at least one concentration point above and below the reported EC50. […]
# Kasumi-1 = conditions: Homo sapiens, read-out: Compound 1-induced Apoptosis EC50
# Description: as §1, §2, §3, §4, §5
# AML-193 = conditions: Homo sapiens, read-out: Compound 1-induced Apoptosis EC50
# Description: as §1, §2, §3, §4, §5
# OCI-AML2 = conditions: Homo sapiens, read-out: Compound 1-induced Apoptosis EC50
# Description: as §1, §2, §3, §4, §5
# HL-60 = conditions: Homo sapiens, read-out: Compound 1-induced Apoptosis EC50
# Description: as §1, §2, §3, §4, §5
# Kasumi-3 = conditions: Homo sapiens, read-out: Compound 1-induced Apoptosis EC50
# Description: as §1, §2, §3, §4, §5
# OCI-AML3 = conditions: Homo sapiens, read-out: Compound 1-induced Apoptosis EC50
# Description: as §1, §2, §3, §4, §5
# THP-1 = conditions: Homo sapiens
# Description: as §1, §2, §3, §4, §5
# ML-2 = conditions: Homo sapiens, read-out: Compound 1-induced Apoptosis EC50
# Description: as §1, §2, §3, §4, §5
# SIG-M5 = conditions: Homo sapiens, read-out: Compound 1-induced Apoptosis EC50
# Description: as §1, §2, §3, §4, §5
# Nomo-1 = conditions: Homo sapiens, read-out: Compound 1-induced Apoptosis EC50
# Description: as §1, §2, §3, §4, §5
# HNT-34 = conditions: Homo sapiens, read-out: Compound 1-induced Apoptosis EC50
# Description: as §1, §2, §3, §4, §5
smiles,measurement,setting,value
"O=C1CCC(N2Cc3cc(CNC(=O)C(F)(F)c4ccc(Cl)cc4)ccc3C2=O)C(=O)N1 (centres unmarked) [Compound 1, 2-(4-chlorophenyl)-N-((2-(2,6-dioxopiperidin-3-yl)-1-oxoisoindolin-5-yl)methyl)-2,2-difluoroacetamide]",EC50,F36-P; 48 hr,335 nM
same,EC50,F36-P; 72 hr,252 nM
same,EC50,F36-P; 96 hr,229 nM
same,EC50,Kasumi-1; 48 hr,124 nM
same,EC50,Kasumi-1; 72 hr,254 nM
same,EC50,Kasumi-1; 96 hr,55 nM
same,EC50,AML-193; 24 hr,254 nM
same,EC50,AML-193; 48 hr,89 nM
same,EC50,AML-193; 72 hr,47 nM
same,EC50,AML-193; 96 hr,60 nM
same,EC50,OCI-AML2; 24 hr,436 nM
same,EC50,OCI-AML2; 48 hr,81 nM
same,EC50,OCI-AML2; 72 hr,41 nM
same,EC50,OCI-AML2; 96 hr,38 nM
same,EC50,HL-60; 24 hr,73 nM
same,EC50,HL-60; 48 hr,15 nM
same,EC50,HL-60; 72 hr,8 nM
same,EC50,Kasumi-3; 12 hr,54 nM
same,EC50,Kasumi-3; 24 hr,10 nM
same,EC50,Kasumi-3; 48 hr,4 nM
same,EC50,Kasumi-3; 72 hr,3 nM
same,EC50,Kasumi-3; 96 hr,1 nM
same,EC50,"OCI-AML3; OCI-AML-3, 48 hr",896 nM
same,EC50,"OCI-AML3; OCI-AML-3, 72 hr",971 nM
same,EC50,"OCI-AML3; OCI-AML-3, 96 hr",418 nM
same,EC50,"THP-1; 48 hours, read-out: apoptosis EC50",> 10000 nM
same,EC50,"THP-1; 48 hours, read-out: apoptosis EC50 48hr",> 10000 nM
same,EC50,"THP-1; all time points, read-out: apoptosis EC50",> 10000 nM
same,EC50,ML-2; 12 hr,179 nM
same,EC50,ML-2; 24 hr,62 nM
same,EC50,ML-2; 48 hr,31 nM
same,EC50,ML-2; 72 hr,21 nM
same,EC50,ML-2; 96 hr,25 nM
same,EC50,SIG-M5; 24 hr,148 nM
same,EC50,SIG-M5; 48 hr,97 nM
same,EC50,SIG-M5; 72 hr,50 nM
same,EC50,SIG-M5; 96 hr,33 nM
same,EC50,Nomo-1; 24 hr,63 nM
same,EC50,Nomo-1; 48 hr,133 nM
same,EC50,Nomo-1; 72 hr,84 nM
same,EC50,Nomo-1; 96 hr,66 nM
same,EC50,HNT-34; 24 hr,7 nM
same,EC50,HNT-34; 48 hr,4 nM
same,EC50,HNT-34; 96 hr,2 nM
